In patent publication US9649306B2, “Treatment of diseases through administration of N-[5-(3,5-difluoro-benzyl)-1H-indazol-3-yl]-4-(4-methyl-piperazin-1-yl)-2-(tetrahydro-pyran-4-ylamino)-benzamide” (NERVIANO MEDICAL SCIENCES S.R.L., priority 2012, dated 2017):
Entries after “also recorded” stand apart in the source; their conditions may differ.

Experiment: Hygroscopicity test by Dynamic Vapour Sorption (DVS 1000, SMS)
Assay type: physicochemical
Settings: for hygroscopicity (in words): DVS, 0-90% RH at 25° C.
Text: The observed water uptake was investigated by submitting a sample of such substances to a hygroscopicity test by means of a DVS 1000 (SMS). The apparatus is a “controlled atmosphere microbalance” where the weighed sample is exposed to programmed variations of the relative humidity (RH) at a constant and controlled temperature. The measured parameters (weight, time and RH), reported in Excel worksheets, allow obtaining hygroscopicity curves over the tested RH range. For example, sorption/desorption cycles between 0% and 90% RH can be performed at controlled temperature of 25° C. Progressive variations of RH can be, for example, of 10% and 3% and are operated by the software at the equilibration of the sample weight. This condition can be defined at a constant rate of percent weight variation such as, for example, 0.005%/min. FIG. 6 reports the DVS profiles of the amorphous form, crystalline form 1 and crystalline form 2 of the compound of formula (I). Relative Humidity (RH, %) values are reported on the x-axis while Change in Mass (%) is reported on the y axis. The curves are related to the sorption step between 0% RH and 90% RH at 25° C.

[1] = DVS sorption step, 25° C./90% RH

water uptake [1] | hygroscopicity (in words) | water uptake (DVS at 25° C., from RH values lower than 30% RH) | SMILES
0.2% | low hygroscopicity |  | CN1CCN(c2ccc(C(=O)Nc3n[nH]c4ccc(Cc5cc(F)cc(F)c5)cc34)c(NC3CCOCC3)c2)CC1 [crystalline form 2, N-[5-(3,5-Difluoro-benzyl)-1H-indazol-3-yl]-4-(4-methyl-piperazin-1-yl)-2-(tetrahydro-pyran-4-ylamino)-benzamide]
0.6% | low hygroscopicity |  | CN1CCN(c2ccc(C(=O)Nc3n[nH]c4ccc(Cc5cc(F)cc(F)c5)cc34)c(NC3CCOCC3)c2)CC1 [crystalline form 1, N-[5-(3,5-Difluoro-benzyl)-1H-indazol-3-yl]-4-(4-methyl-piperazin-1-yl)-2-(tetrahydro-pyran-4-ylamino)-benzamide]

SMILES | water uptake [1] | hygroscopicity (in words) | water uptake (DVS at 25° C., from RH values lower than 30% RH)
CN1CCN(c2ccc(C(=O)Nc3n[nH]c4ccc(Cc5cc(F)cc(F)c5)cc34)c(NC3CCOCC3)c2)CC1 [amorphous form, N-[5-(3,5-Difluoro-benzyl)-1H-indazol-3-yl]-4-(4-methyl-piperazin-1-yl)-2-(tetrahydro-pyran-4-ylamino)-benzamide] | 2.5% | higher hygroscopicity than the crystalline forms 1 and 2; also recorded: hygroscopic solid | greater than 1%
